In patent US8202879B2, “Quinazoline derivatives having tyrosine kinase inhibitory activity” (Shionogi & Co., Ltd., priority 2005, dated 2012):
Counter-ions that a name gives are not always drawn. Like-named read-outs stand apart in the source and are kept apart here.

Key:
HER2 = molecular target: T1, HER2 (Homo sapiens, UniProt P04626); assay: Enzyme inhibitory activity on HER2 (time resolution fluorescence, biotinylated poly-Glu-Tyr substrate); type: biochemical
T1 construct: purchased Carna Biosciences, Inc; host or cells: insect cell expression system
Description: (§1) Enzyme Inhibitory Activity of Test Compound on EGFR and HER2
(§2) EGFR and HER2 purified from an insect cell expression system, and a biotinylated substrate (synthetic peptide of glutamic acid:tyrosine=4:1) were added to a 384-well plate with ATP added thereto, and an enzyme reaction was performed at room temperature. After completion of the enzyme reaction, an anti-phosphorylated tyrosine antibody labeled with europium and streptavidin labeled with alphycocyanine were added, and a phosphorylated tyrosine residue was quantified by a time resolution fluorescence method.
(§3) A test compound was adjusted to 10 mM using DMSO.
(§4) Further, using 10% DMSO solution, a 1 mM solution was prepared, and this was regarded as a maximum concentration point.
(§5) As a dilution series, a 4-fold dilution series was prepared to a 10 stage.
(§6) As a buffer, TBS containing 10 mM MgCl2, 5 mM MnCl2, 0.2 mM Na3VO4, and 0.1% BSA was used.
(§7) As EGFR and HER2 enzymes, those purified from an insect cell expression system were purchased from Carna Biosciences, Inc.
HER2 kinase was adjusted to 1000 ng/ml using a buffer.
(§8) As a substrate, biotinylated poly-Glu-Tyr (4:1, manufactured by CISbio) was used. A concentration was adjusted to 3.125 μg/ml using the above buffer.
An ATP concentration on study of the HER2 enzyme was adjusted to 290 μM.
(§9) For preparing a detection reagent, TBS containing 30 mM EDTA, 0.8M KF and 0.1% BSA was used.
(§10) An anti-phosphorylated tyrosine antibody labeled with europium, PT-66K (CISbio) was adjusted to 195 ng/ml, and streptavidin labeled with alphycocyanine, SA-XL (CISbio) was adjusted to 5 μg/ml.
(§11) As an assay plate, a 384-well plate was used. Per one well, 1.1 μl of a test compound, 4 μl of a substrate solution, and 4 μl of an enzyme solution were added, and 2 μl of an ATP solution was added to initiate an enzyme reaction. The enzyme reaction was performed at room temperature for 60 minutes, and 10 μl of a detection reagent was added to complete the reaction. One hour after completion of the reaction, time resolution fluorescent measurement was performed.

EGFR = molecular target: T2, EGFR (Homo sapiens, UniProt P00533); assay: Enzyme inhibitory activity on EGFR (time resolution fluorescence, biotinylated poly-Glu-Tyr substrate); type: biochemical
T2 construct: purchased Carna Biosciences, Inc; host or cells: insect cell expression system
Description: as §1, §2, §3, §4, §5, §6, §7
An EGFR enzyme solution was adjusted to 250 ng/ml using a buffer.
as §8
An ATP concentration on study of the EGFR enzyme was adjusted to 125 μM using the buffer.
as §9, §10, §11

BT-474 = assay: In vitro cell proliferation inhibition, WST assay; type: cell-based, human; details: BT-474 cells, cultured for 3 days, read-out: BT-474 (nM) proliferation inhibitory activity (IC50 value)
Description: Test of In Vitro Cell Proliferation Inhibition of Test Compound
As a human-derived cancer cell strain, BT-474 was used. Cells were all cultured in a 37° C., 5% CO2 incubator in a medium in which 10% bovine fetal serum (ICN) and 50 units ml penicillin/60 μg/ml streptomycin solution (GIBCO) were added to Dulbecco's Modified Essential Medium (DMEM, Nacalai Tesque, Inc).

[1] = HER2 purified from insect cell expression system, ATP solution 290 μM, room temperature, 60 minutes
[2] = EGFR purified from insect cell expression system, ATP solution 125 μM, room temperature, 60 minutes
[3] = enzyme reaction at room temperature for 60 minutes

T2 sequence (P00533 25-1210): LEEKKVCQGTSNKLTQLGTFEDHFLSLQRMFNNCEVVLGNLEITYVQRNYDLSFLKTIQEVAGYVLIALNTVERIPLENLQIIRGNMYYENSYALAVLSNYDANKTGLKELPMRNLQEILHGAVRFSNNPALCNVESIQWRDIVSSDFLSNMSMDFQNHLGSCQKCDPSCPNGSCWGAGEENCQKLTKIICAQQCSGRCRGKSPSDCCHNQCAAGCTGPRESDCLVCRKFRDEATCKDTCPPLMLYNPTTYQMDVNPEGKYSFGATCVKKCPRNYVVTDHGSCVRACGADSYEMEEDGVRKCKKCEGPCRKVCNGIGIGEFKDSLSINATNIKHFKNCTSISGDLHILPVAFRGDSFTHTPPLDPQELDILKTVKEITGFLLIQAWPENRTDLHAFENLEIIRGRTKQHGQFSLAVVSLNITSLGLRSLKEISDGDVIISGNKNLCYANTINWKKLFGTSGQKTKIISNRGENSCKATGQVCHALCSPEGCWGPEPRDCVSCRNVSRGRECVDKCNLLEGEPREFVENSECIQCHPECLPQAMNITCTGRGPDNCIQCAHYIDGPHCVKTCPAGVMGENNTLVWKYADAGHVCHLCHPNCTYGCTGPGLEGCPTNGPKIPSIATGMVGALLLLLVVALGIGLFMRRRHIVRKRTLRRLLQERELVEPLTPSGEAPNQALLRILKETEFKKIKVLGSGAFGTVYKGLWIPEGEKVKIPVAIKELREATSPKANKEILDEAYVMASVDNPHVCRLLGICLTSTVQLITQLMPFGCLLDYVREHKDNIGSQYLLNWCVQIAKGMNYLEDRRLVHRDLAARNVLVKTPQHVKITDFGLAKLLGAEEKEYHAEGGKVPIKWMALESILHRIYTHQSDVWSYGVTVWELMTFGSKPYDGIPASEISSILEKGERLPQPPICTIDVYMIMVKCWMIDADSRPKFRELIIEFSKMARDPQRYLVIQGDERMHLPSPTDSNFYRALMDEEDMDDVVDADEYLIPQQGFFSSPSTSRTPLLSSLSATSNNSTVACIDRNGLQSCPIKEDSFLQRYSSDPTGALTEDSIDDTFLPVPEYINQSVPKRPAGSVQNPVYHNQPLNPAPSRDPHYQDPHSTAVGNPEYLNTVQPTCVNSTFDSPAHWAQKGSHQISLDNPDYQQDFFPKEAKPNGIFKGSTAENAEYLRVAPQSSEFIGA
T1 sequence (P04626 23-1255): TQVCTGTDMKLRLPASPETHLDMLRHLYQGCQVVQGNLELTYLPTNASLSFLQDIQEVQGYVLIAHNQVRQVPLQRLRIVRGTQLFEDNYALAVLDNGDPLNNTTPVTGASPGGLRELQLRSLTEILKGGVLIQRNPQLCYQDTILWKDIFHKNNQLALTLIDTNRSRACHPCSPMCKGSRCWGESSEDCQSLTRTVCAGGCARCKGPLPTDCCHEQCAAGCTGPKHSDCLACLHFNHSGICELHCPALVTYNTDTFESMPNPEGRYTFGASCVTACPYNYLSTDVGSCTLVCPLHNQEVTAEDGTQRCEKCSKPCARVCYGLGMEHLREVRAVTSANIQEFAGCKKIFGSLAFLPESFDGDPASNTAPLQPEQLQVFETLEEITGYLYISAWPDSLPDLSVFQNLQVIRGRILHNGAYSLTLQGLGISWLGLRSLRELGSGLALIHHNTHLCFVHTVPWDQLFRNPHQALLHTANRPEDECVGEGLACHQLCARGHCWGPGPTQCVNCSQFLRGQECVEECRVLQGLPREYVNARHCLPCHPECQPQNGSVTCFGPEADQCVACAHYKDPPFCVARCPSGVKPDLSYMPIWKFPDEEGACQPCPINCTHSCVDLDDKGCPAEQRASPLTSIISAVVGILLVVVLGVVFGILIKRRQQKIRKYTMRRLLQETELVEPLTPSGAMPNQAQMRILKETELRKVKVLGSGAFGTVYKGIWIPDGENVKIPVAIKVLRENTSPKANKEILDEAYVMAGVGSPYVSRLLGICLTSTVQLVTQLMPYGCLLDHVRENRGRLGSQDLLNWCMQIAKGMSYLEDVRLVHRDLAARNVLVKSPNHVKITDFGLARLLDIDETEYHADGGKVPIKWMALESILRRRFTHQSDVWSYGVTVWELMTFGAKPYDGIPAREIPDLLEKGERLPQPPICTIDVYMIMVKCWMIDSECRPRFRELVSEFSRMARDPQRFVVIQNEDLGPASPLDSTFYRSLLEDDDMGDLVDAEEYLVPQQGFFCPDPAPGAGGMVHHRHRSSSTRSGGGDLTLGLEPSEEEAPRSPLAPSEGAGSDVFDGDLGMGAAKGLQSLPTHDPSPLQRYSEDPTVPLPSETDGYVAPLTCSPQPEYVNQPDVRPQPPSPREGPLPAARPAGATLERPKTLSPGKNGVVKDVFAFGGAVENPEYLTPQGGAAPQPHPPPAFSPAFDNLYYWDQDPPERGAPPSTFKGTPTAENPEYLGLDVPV

| SMILES | IC50 (HER2; [1]) [nM] | IC50 (EGFR; [2]) [nM] | IC50 (BT-474; Homo sapiens, BT-474, 72 h) [nM] | IC50 (HER2; [3]) [nM] | IC50 (EGFR; [3]) [nM] | IC50 (BT-474) [nM] |
| --- | --- | --- | --- | --- | --- | --- |
| Fc1cccc(COc2ccc(Nc3ncnc4ccc(/C=N/OCCN5CCCC5)cc34)cc2Cl)c1 [Compound V-6] | 3.6 | 6.5 | 110 | – | – | – |
| Fc1cccc(COc2ccc(Nc3ncnc4ccc(/C=N/OCCN5CCOCC5)cc34)cc2Cl)c1 [Compound V-7] | 76 | 36 | 134 | – | – | – |
| C=CC(=O)N1CCN(CCON=Cc2ccc3ncnc(Nc4ccc(OCc5cccc(F)c5)c(Cl)c4)c3c2)CC1 [Compound V-43, 4-(3-chloro-4-(3-fluorobenzyloxy)phenylamino)-6-(2-(4-acryloyl-1-piperazin-1-yl)ethoxyimino)methylquinazoline] | 151 | 186 | 71 | – | – | – |
| Fc1cccc(COc2ccc(Nc3ncnc4ccc(C=NN5CCCC5)cc34)cc2Cl)c1 [IX-1, 4-(3-chloro-4-(3-fluorobenzyloxy)phenylamino)-6-(pyrrolidin-1-yliminomethyl)quinazoline] | – | – | – | 203 | 138 | – |
| Fc1cccc(COc2ccc(Nc3ncnc4ccc(/C=N/N5CCCCC5)cc34)cc2Cl)c1 [IX-4] | – | – | – | 334 | 193 | – |
| COC[C@@H]1CCCN1/N=C/c1ccc2ncnc(Nc3ccc(OCc4cccc(F)c4)c(Cl)c3)c2c1 [IX-6] | – | – | – | 326 | 344 | – |
| CN(/N=C/c1ccc2ncnc(Nc3ccc(OCc4cccc(F)c4)c(Cl)c3)c2c1)c1ccccc1 [IX-8] | – | – | – | 549 | 426 | – |
| CC/C(=N\OCCN1CCOCC1)c1ccc2ncnc(Nc3ccc(OCc4cccc(F)c4)c(Cl)c3)c2c1 [VIII-7] | 348 | 103 | 63 | – | – | – |
| CC#CC(=NOCCN1CCOCC1)c1ccc2ncnc(Nc3ccc(OCc4cccc(F)c4)c(Cl)c3)c2c1 [VIII-10] | 484 | 409 | 27 | – | – | – |
| O=S1(=O)CCN(CCON=C(c2ccccc2)c2ccc3ncnc(Nc4ccc(OCc5cccc(F)c5)c(Cl)c4)c3c2)CC1 [VIII-12] | 227 | 209 | 69 | – | – | – |
| Fc1cccc(COc2ccc(Nc3ncnc4ccc(C(=NOCCN5CCOCC5)c5ccccc5)cc34)cc2Cl)c1 [VIII-13] | 888 | 300 | 64 | – | – | – |
| CC/C(=N\OCCNCCS(C)(=O)=O)c1ccc2ncnc(Nc3ccc(OCc4cccc(F)c4)c(Cl)c3)c2c1 [VIII-19] | 115 | 89 | – | – | – | – |
| CC/C(=N\OCCNC)c1ccc2ncnc(Nc3ccc(OCc4cccc(F)c4)c(Cl)c3)c2c1 [VIII-20] | 31 | 29 | 37 | – | – | – |
| CC#C/C(=N\OCCNC)c1ccc2ncnc(Nc3ccc(OCc4cccc(F)c4)c(Cl)c3)c2c1 [VIII-27] | 43 | 33 | – | – | – | 13 |
| CC#C/C(=N\OCCNC1CCCCC1)c1ccc2ncnc(Nc3ccc(OCc4cccc(F)c4)c(Cl)c3)c2c1 [VIII-28] | 167 | 162 | – | – | – | 72 |
| CS(=O)(=O)CCNCCON=C(c1ccccc1)c1ccc2ncnc(Nc3ccc(OCc4cccc(F)c4)c(Cl)c3)c2c1 [VIII-29] | 513 | 102 | 77 | – | – | – |
| CC#CC(=NOC[C@@H]1CNCCO1)c1ccc2ncnc(Nc3ccc(OCc4cccc(F)c4)c(Cl)c3)c2c1 [VIII-32, 4-(3-chloro-4-(3-fluorobenzyloxy)phenylamino)-6-(1-((S)-morpholin-2-ylmethoxyimino)-2-butyn-1-yl)quinazoline dihydrochloride] | 46 | 50 | 32 | – | – | – |

| SMILES | IC50 (HER2; [1]) [nM] | IC50 (EGFR; [2]) [nM] | IC50 (BT-474; Homo sapiens, BT-474, 72 h) [nM] | IC50 (HER2; [3]) [nM] | IC50 (EGFR; [3]) [nM] | IC50 (BT-474) [nM] |
| --- | --- | --- | --- | --- | --- | --- |
| CC#CC(=NOCCNCC)c1ccc2ncnc(Nc3ccc(OCc4cccc(F)c4)c(Cl)c3)c2c1 [VIII-35] | 25 | 11 | 24 | – | – | – |
| CC#CC(=NOCC(C)N)c1ccc2ncnc(Nc3ccc(OCc4cccc(F)c4)c(Cl)c3)c2c1 (stereo not shown) [VIII-40] | 19.2 | 9.3 | – | – | – | 9 |
| CC#C/C(=N\OC[C@@H](N)CO)c1ccc2ncnc(Nc3ccc(OCc4cccc(F)c4)c(Cl)c3)c2c1 [VIII-41] | 15 | 12 | – | – | – | 14 |
| CC#C/C(=N\OCCN)c1ccc2ncnc(Nc3ccc(OCc4cccc(F)c4)c(Cl)c3)c2c1 [VIII-42] | 11 | 10 | – | – | – | 24 |
| CC#C/C(=N\OCCNC(C)COC)c1ccc2ncnc(Nc3ccc(OCc4cccc(F)c4)c(Cl)c3)c2c1 (stereo not shown) [VIII-44] | 6.3 | 26 | – | – | – | 28 |
| CC#C/C(=N\OCCNCCS(C)(=O)=O)c1ccc2ncnc(Nc3ccc(OCc4cccc(F)c4)c(Cl)c3)c2c1 [VIII-45] | 152 | 58 | – | – | – | 13 |
| CC#C/C(=N\OCCNC1CC1)c1ccc2ncnc(Nc3ccc(OCc4cccc(F)c4)c(Cl)c3)c2c1 [VIII-46] | 104 | 82 | 12 | – | – | – |
| CC#C/C(=N\OCCNCCNC(C)=O)c1ccc2ncnc(Nc3ccc(OCc4cccc(F)c4)c(Cl)c3)c2c1 [VIII-47] | 23 | 12 | – | – | – | 4 |
| CC#C/C(=N\OCCNC[C@H]1CCCO1)c1ccc2ncnc(Nc3ccc(OCc4cccc(F)c4)c(Cl)c3)c2c1 [VIII-48] | 15 | 44 | – | – | – | 28 |
| CC#C/C(=N\OCCNC[C@@H]1CCCO1)c1ccc2ncnc(Nc3ccc(OCc4cccc(F)c4)c(Cl)c3)c2c1 [VIII-49] | 31 | 28 | – | – | – | 28 |
| CC#C/C(=N\OCCNCCCN1CCCC1=O)c1ccc2ncnc(Nc3ccc(OCc4cccc(F)c4)c(Cl)c3)c2c1 [VIII-50] | 15 | 19 | 27 | – | – | – |
| CC#C/C(=N\OCCNCCNS(C)(=O)=O)c1ccc2ncnc(Nc3ccc(OCc4cccc(F)c4)c(Cl)c3)c2c1 [VIII-51] | 64 | 45 | 9 | – | – | – |
| CC#C/C(=N\OCCNC[C@H]1CCC(=O)N1)c1ccc2ncnc(Nc3ccc(OCc4cccc(F)c4)c(Cl)c3)c2c1 [VIII-52] | 28 | 19 | – | – | – | 9 |
| CC#C/C(=N\OCCNCCOC(N)=O)c1ccc2ncnc(Nc3ccc(OCc4cccc(F)c4)c(Cl)c3)c2c1 [VIII-53] | 80 | 79 | 12 | – | – | – |
| CC#C/C(=N\OCCNC1CCOCC1)c1ccc2ncnc(Nc3ccc(OCc4cccc(F)c4)c(Cl)c3)c2c1 [VIII-55] | 68 | 19 | 25 | – | – | – |
| CC#C/C(=N\OCCN(C)CCOC)c1ccc2ncnc(Nc3ccc(OCc4cccc(F)c4)c(Cl)c3)c2c1 [VIII-64] | – | 52 | 22 | – | – | – |
| CC#C/C(=N\OC[C@@H]1C[C@H](O)CN1)c1ccc2ncnc(Nc3ccc4c(cnn4Cc4cccc(F)c4)c3)c2c1 [VIII-200] | – | – | – | – | – | 8 |
